Source: patent publication US11078168B2, “Substituted N-hydroxyamidinoheterocycles as modulators of indoleamine 2,3-dioxygenase” (PHENEX DISCOVERY VERWALTUNGS-GMBH, priority 2016, dated 2021)

Molecular target: T1, Indoleamine 2,3-dioxygenase (Homo sapiens, UniProt P14902)
T1 construct: endogenous in cells; host or cells: SKOV-3 (ATCC HTB-77), stimulated with interferon gamma
Test: SKOV-3 cellular Indoleamine 2,3-dioxygenase assay
Conditions: SKOV-3 cells, 50 ng/ml Interferon gamma, 100 μM L-Tryptophan, 24 hours, N-Formylkynurenin fluorescence detection; read-out: cell based activity
Method: SKOV-3 cellular Indoleamine 2,3-dioxygenase assay
SKOV-3 cells were obtained from the American Type Culture Collection (ATCC® HTB-77™) and maintained in McCoy's medium (Pan Biotech) supplemented with 10% fetal bovine serum and 1% Penicilin/Streptomycin. Cells were kept at 37° C. in a humidified incubator with 5% CO2. For assay preparation, cells were seeded at a density of 2*10^5/ml into black clear bottom 96 well plates in 100 μl medium/well supplemented with 50 ng/ml Interferon gamma (eBioscience, Thermo Fisher Scientific). After cells fully adhered to the plate, dilution series of compounds were added in medium containing additional L-Tryptophan to a final L-Tryptophan concentration of 100 μM. The cells were incubated for 24 hours. Detection of produced N-Formylkynurenin was performed by addition of 3-Methylpiperidine to a final concentration of 200 mM. The plates were sealed and heated to 65° C. for 20 minutes in a water bath. After cooling the fluorescence of each well was recorded with a Victor™X4 (PerkinElmer) plate reader at an emission wavelength of 535 nm and excitation at 405 nm (Tomek et al.; Anal Bioanal Chem (2013) 405:2515-2524., Tomek et al.; Biochim Biophys Acta. 2015 September; 1850(9):1772-80).

T1 sequence (P14902 whole entry): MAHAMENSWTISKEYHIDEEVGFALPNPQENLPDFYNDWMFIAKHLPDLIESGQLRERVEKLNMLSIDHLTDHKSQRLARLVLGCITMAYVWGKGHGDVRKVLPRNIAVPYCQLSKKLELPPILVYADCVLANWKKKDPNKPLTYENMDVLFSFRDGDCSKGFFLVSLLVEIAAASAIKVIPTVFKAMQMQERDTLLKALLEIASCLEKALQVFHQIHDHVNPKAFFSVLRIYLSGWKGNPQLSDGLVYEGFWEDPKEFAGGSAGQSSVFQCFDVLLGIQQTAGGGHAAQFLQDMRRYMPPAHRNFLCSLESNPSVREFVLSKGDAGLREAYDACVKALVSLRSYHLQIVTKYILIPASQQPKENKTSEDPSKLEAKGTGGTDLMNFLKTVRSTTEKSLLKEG

IC50 [nM] | SMILES
< 100 | C[C@H](CSc1nonc1/C(=N/O)Nc1ccc(F)c(Br)c1)NC(=O)CS(N)(=O)=O (single isomer, unassigned) [114/4]
< 100 | CS(=N)(=O)c1ccc(C(=O)NCCSc2nonc2C(=NO)Nc2ccc(F)c(C(F)F)c2)cc1 (centres unmarked) [Example 122, N-(2-((4-(N-(3-(Difluoromethyl)-4-fluorophenyl)-N′-hydroxycarbamimidoyl)-1,2,5-oxadiazol-3-yl)thio)ethyl)-4-(S-methylsulfonimidoyl)benzamide]
100 to 1000 | NS(=O)(=O)NCCSc1nonc1C(=NO)Nc1ccnc(C(F)(F)F)c1 [Example 112/1, N′—Hydroxy-4-((2-(sulfamoylamino)ethyl)thio)—N-(2-(trifluoromethyl)pyridin-4-yl)-1,2,5-oxadiazole-3-carboximidamide]
< 100 | O=S(=O)(NCCOc1nonc1C(=NO)Nc1ccc(F)c(Cl)c1)C(F)F [1/3]
< 100 | N#Cc1cc(N/C(=N\O)c2nonc2SCCNC(=O)CS(N)(=O)=O)ccc1F [107/3]
< 100 | NS(=O)(=O)CC(=O)NCCSc1nonc1C(=NO)Nc1cc(F)c(F)c(Br)c1 [117/24]
< 100 | NS(=O)(=O)CC(=O)NCCSc1nonc1/C(=N/O)Nc1cccc(C(F)F)c1 [117/19]
< 100 | NC(=O)C(F)(F)C(=O)NCCSc1nonc1C(=NO)Nc1ccc(F)c(C(F)F)c1 [Example 118]
100 to 1000 | O=C(NCCSc1nonc1C(=NO)Nc1ccc(F)c(Cl)c1)c1nnc(C(F)(F)F)[nH]1 [117/6]
< 100 | NS(=O)(=O)NCCOc1nonc1C(=NO)Nc1ccc(F)c(C(F)F)c1 [6/2]
100 to 1000 | N#CC1(C(=O)NCCSc2nonc2C(=NO)Nc2ccc(F)c(C(F)F)c2)CNC1 [Example 125, 3-Cyano-N-(2-((4-(N-(3-(difluoromethyl)-4-fluorophenyl)-N′-hydroxycarbamimidoyl)-1,2,5-oxadiazol-3-yl)thio)ethyl)azetidine-3-carboxamide]
< 100 | COC1(C(=O)NCCSc2nonc2C(=NO)Nc2ccc(F)c(C(F)F)c2)CNC1 [123/2]
100 to 1000 | CNC(=O)C(=O)NCCOc1nonc1C(=NO)Nc1ccc(F)c(Cl)c1 [9/17]
< 100 | N#CCC(=O)NCCSc1nonc1/C(=N/O)Nc1ccc(F)c(C(F)F)c1 [107/17]
100 to 1000 | O=C(NCCSc1nonc1C(=NO)Nc1ccc(F)c(C(F)F)c1)c1ccc(-n2cnnc2)cc1 [107/26]
< 100 | CS(=O)(=O)NCC(=O)NCCSc1nonc1C(=NO)Nc1ccc(F)c(C(F)F)c1 [128/2]
< 100 | C[C@@H](CSc1nonc1C(=NO)Nc1ccc(F)c(C(F)F)c1)NC(=O)CS(N)(=O)=O (single isomer, unassigned) [114/1]
< 100 | NS(=O)(=O)CC(=O)NCCSc1nonc1C(=NO)Nc1ccc(F)c(Br)c1F [117/23]
< 100 | Nc1c(NCCCOc2nonc2C(=NO)Nc2ccc(F)c(Cl)c2)c(=O)c1=O [2/4]
100 to 1000 | C[S+]([O-])NCCOc1nonc1C(=NO)Nc1ccc(F)c(Cl)c1 (centres unmarked) [1/4]
< 100 | NC(=O)NCCOc1nonc1C(=NO)Nc1ccc(F)c(Cl)c1 [Example 5, N-(3-Chloro-4-fluorophenyl)-N′-hydroxy-4-(2-ureidoethoxy)-1,2,5-oxadiazole-3-carboximidamide]

IC50 [nM] | SMILES
< 100 | NS(=O)(=O)CC(=O)NCCSc1nonc1/C(=N/O)Nc1cccc(Br)c1 [107/4]
< 100 | CS(=O)(=O)NCCSc1nonc1/C(=N/O)Nc1ccc(F)c(Br)c1 [Example 100, N-(3-Bromo-4-fluorophenyl)-N′-hydroxy-4-((2-(methylsulfonamido)ethyl)thio)-1,2,5-oxadiazole-3-carboximidamide]
100 to 1000 | COc1nonc1C(=NO)Nc1ccc(F)c(Cl)c1 [8/2]
100 to 1000 | O=C(O)CC1CN(CCSc2nonc2C(=NO)Nc2ccc(F)c(C(F)F)c2)C1 [108/2]
< 100 | CSc1nonc1/C(=N/O)Nc1ccc(F)c(Br)c1 [Example 103/1, N-(3-bromo-4-fluorophenyl)-N′-hydroxy-4-(methylthio)-1,2,5-oxadiazole-3-carboximidamide]
< 100 | NS(=O)(=O)CC(=O)NCCSc1nonc1C(=NO)Nc1cc(F)c(F)c(C(F)F)c1 [107/33]
< 100 | NS(=O)(=O)NCC(=O)NCCSc1nonc1C(=NO)Nc1ccc(F)c(C(F)(F)F)c1 [128/1]
< 100 | NS(=O)(=O)CC(=O)NCCSc1nonc1C(=NO)Nc1cccc(CF)c1 [107/11]
< 100 | Cc1nnc(C(=O)NCCSc2nonc2C(=NO)Nc2ccc(F)c(Cl)c2)o1 [117/7]
< 100 | Nc1c(NCCOc2nonc2C(=NO)Nc2ccc(F)c(C(F)F)c2)c(=O)c1=O [2/3]
< 100 | NS(=O)(=O)NCCOc1nonc1/C(=N/O)Nc1ccc(F)c(Cl)c1 [6/1]
> 1000 | O=C(O)c1ccc(C(=O)NCCOc2nonc2C(=NO)Nc2ccc(F)c(Cl)c2)cc1 [9/9]
< 100 | O=C(CCCC[C@@H]1SC[C@@H]2NC(=O)N[C@@H]21)NCCSc1nonc1C(=NO)Nc1ccc(F)c(Cl)c1 [107/18]
< 100 | CS(=N)(=O)NCCSc1nonc1C(=NO)Nc1ccc(F)c(C(F)F)c1 (centres unmarked) [120/1]
< 100 | CS(=O)(=O)CCC(=O)NCCSc1nonc1C(=NO)Nc1cccc(Cl)c1 [107/39]
> 1000 | O=C(NCCSc1nonc1C(=NO)Nc1ccc(F)c(Cl)c1)c1ccc(NS(=O)(=O)C(F)(F)F)nc1 [117/11]
100 to 1000 | NS(=O)(=O)CC(=O)NCCOc1nonc1C(=NO)Nc1cccc(C(F)(F)F)c1 [9/20]
100 to 1000 | Cn1nc(C(=O)NCCSc2nonc2C(=NO)Nc2cccc(C(F)(F)F)c2)[nH]c1=O [117/18]
> 1000 | CS(=N)(=O)c1nonc1C(=NO)Nc1ccc(F)c(Br)c1 (centres unmarked) [Example 106, N-(3-Bromo-4-fluorophenyl)-N′-hydroxy-4-(S-methylsulfonimidoyl)-1,2,5-oxadiazole-3-carboximidamide]
> 1000 | ON=C(Nc1ccc(F)c(Br)c1)c1nonc1OCc1ccccc1 [Example 8, 4-(Benzyloxy)-N-(3-bromo-4-fluorophenyl)-N′-hydroxy-1,2,5-oxadiazole-3-carboximidamide]
< 100 | CS(=N)(=O)CC(=O)NCCSc1nonc1C(=NO)Nc1cccc(Cl)c1 (centres unmarked) [127/3]

IC50 [nM] | SMILES
< 100 | NC(=O)C1(C(=O)NCCOc2nonc2C(=NO)Nc2ccc(F)c(Cl)c2)CC1 [Example 7, N-(2-((4-(N-(3-chloro-4-fluorophenyl)-N′-hydroxycarbamimidoyl)-1,2,5-oxadiazol-3-yl)oxy)ethyl)cyclopropane-1,1-dicarboxamide]
< 100 | CC1(C(=O)NCCSc2nonc2C(=NO)Nc2ccc(F)c(C(F)F)c2)CNC1 [123/5]
100 to 1000 | CN(CCOc1nonc1C(=NO)Nc1ccc(F)c(Cl)c1)C(=O)CS(N)(=O)=O [9/22]
< 100 | NC(=O)CNS(=O)(=O)NCCSc1nonc1C(=NO)Nc1ccc(F)c(C(F)F)c1 [119/6]
< 100 | CCN1CC(O)(C(=O)NCCSc2nonc2C(=NO)Nc2ccc(F)c(C(F)(F)F)c2)C1 [Example 124, 1-Ethyl-N-(2-((4-(N-(4-fluoro-3-(trifluoromethyl)phenyl)-N′-hydroxycarbamimidoyl)-1,2,5-oxadiazol-3-yl)thio)ethyl)-3-hydroxyazetidine-3-carboxamide]
100 to 1000 | O=C(NCCOc1nonc1C(=NO)Nc1ccc(F)c(Cl)c1)c1ccc(F)cc1 [9/1]
100 to 1000 | NC(=O)CCCOc1nonc1C(=NO)Nc1ccc(F)c(Cl)c1 [Example 11, 4-((4-(N-(3-Chloro-4-fluorophenyl)-N′-hydroxycarbamimidoyl)-1,2,5-oxadiazol-3-yl)oxy)butanamide]
< 100 | NC(=O)CCC(=O)NCCSc1nonc1C(=NO)Nc1ccc(F)c(C(F)F)c1 [107/37]
< 100 | CS(=O)(=O)N1CC(O)(C(=O)NCCSc2nonc2C(=NO)Nc2ccc(F)c(C(F)F)c2)C1 [128/5]
100 to 1000 | O=C(NCCCOc1nonc1C(=NO)Nc1ccc(F)c(Cl)c1)C(O)CO (centres unmarked) [9/7]
< 100 | Nc1c(NCCOc2nonc2C(=NO)Nc2ccc(F)c(C(F)(F)F)c2)c(=O)c1=O [2/5]
100 to 1000 | NS(=O)(=O)NCCOc1nonc1C(=NO)Nc1cccc(C(F)F)c1 [6/3]
< 100 | O=C(NCCSc1nonc1C(=NO)Nc1ccc(F)c(C(F)F)c1)c1ccc(C(F)(F)F)cc1 [107/23]
> 1000 | O=C(O)c1cccc(C(=O)NCCOc2nonc2C(=NO)Nc2ccc(F)c(Cl)c2)c1 [9/13]
100 to 1000 | NC(=O)C1(C(=O)NCCSc2nonc2C(=NO)Nc2ccc(F)c(C(F)F)c2)CNC1 [Example 126]
< 100 | COc1nonc1/C(=N/O)Nc1ccc(F)c(Br)c1 [8/1, N-(3-Bromo-4-fluorophenyl)-N-hydroxy-4-methoxy-1,2,5-oxadiazole-3-carboximidamide]
< 100 | NS(=O)(=O)CCC(=O)NCCSc1nonc1C(=NO)Nc1ccc(F)c(C(F)(F)F)c1 [107/35]
< 100 | CS(=O)(=O)CCC(=O)NCCSc1nonc1C(=NO)Nc1cccc(Br)c1 [107/40]
100 to 1000 | Nc1c(NCCOc2nonc2C(=NO)Nc2cccc(C(F)F)c2)c(=O)c1=O [2/7]
< 100 | O=C(NCCSc1nonc1C(=NO)Nc1ccc(F)c(C(F)F)c1)c1ccc(C2(O)COC2)cc1 [107/29]
